Each structure is given as a SMILES string. Structures can show the parent of a compound that is named as a salt.

This experiment concerns the target hATX/ENPP2 (Homo sapiens, UniProt Q13822). Nature of the experiment: hATX/ENPP2 biochemical assay using 16:0-LPC as substrate (Amplex Red/choline oxidase/HRP fluorescence). The settings on record: hENPP2 2.5 nM, LPC (16:0) substrate. The gist of the method: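 Enzyme preincubated with compounds 15 min at room temperature in 50 mM Tris-HCl pH 8.0, 140 mM NaCl, 5 mM CaCl2, 0.01% Triton X-100. Reaction started with 80 μM LPC (16:0) stock plus Amplex Red/choline oxidase/HRP mix; fluorescence (ex 530/em 590 nm) read kinetically. IC50 from slope between 60 and 70 min.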
In turn, `CCc1nc2ccc(-c3cnc(N4CCC(NC(=O)[C@@H]5C[C@H](O)CN5)CC4)nc3)cn2c1N(C)c1nc(-c2ccc(F)cc2)c(C#N)s1` [Compound 75, (2S,4S)—N-(1-(5-(3-((5-cyano-4-(4-fluorophenyl)thiazol-2-yl)(methyl)amino)-2-ethylimidazo[1,2-a]pyridin-6-yl)pyrimidin-2-yl)piperidin-4-yl)-4-hydroxypyrrolidine-2-carboxamide] yielded an IC50 of no more than 20 nM.
On to `CCc1nc2ccc(-c3cnc(N4CCC(NC(=O)[C@H]5C[C@@H](O)CN5)CC4)nc3)cn2c1N(C)c1nc(-c2ccc(F)cc2)c(C#N)s1` [Compound 76, (2R,4R)—N-(1-(5-(3-((5-cyano-4-(4-fluorophenyl)thiazol-2-yl)(methyl)amino)-2-ethylimidazo[1,2-a]pyridin-6-yl)pyrimidin-2-vl)piperidin-4-yl)-4-hydroxypyrrolidine-2-carboxamide], for which the half-inhibitory concentration (IC50) is no more than 20 nM.
As to `CCc1nc2ccc(-c3cnc(N4CCC(NC(=O)[C@@H]5C[C@@H](O)CN5)CC4)nc3)cn2c1N(C)c1nc(-c2ccc(F)cc2)c(C#N)s1` [Compound 77, (2S,4R)—N-(1-(5-(3-((5-cyano-4-(4-fluorophenyl)thiazol-2-yl)(methyl)amino)-2-ethylimidazo[1,2-a]pyridin-6-yl)pyrimidin-2-yl)piperidin-4-yl)-4-hydroxypyrrolidine-2-carboxamide], the 50% inhibitory concentration (IC50) was no more than 20 nM.
For `CCc1nc2ccc(-c3cnc(N4CCN(C(=O)[C@@H]5C[C@@H](O)CN5C)CC4)nc3)cn2c1N(C)c1nc(-c2ccc(F)cc2)c(C#N)s1` [Compound 78, 2-((2-ethyl-6-(2-(4-((2S,4R)-4-hydroxy-1-methylpyrrolidine-2-carbonyl)piperazin-1-yl)pyrimidin-5-yl)imidazo [1,2-a]pyridin-3-yl)(methyl)amino)-4-(4-fluorophenyl)thiazole-5-carbonitrile], the IC50 is no more than 20 nM.
`CCc1nc2ccc(-c3cnc(N4CCN(C(=O)NC5CN(C)C5)CC4)nc3)cn2c1N(C)c1nc(-c2ccc(F)cc2)c(C#N)s1` [Compound 82 hydrochloride, 4-(5-(3-((5-cyano-4-(4-fluorophenyl)thiazol-2-yl)(methyl)amino)-2-ethylimidazo[1,2-a]pyridin-6-yl)pyrimidin-2-yl)-N-(1-methylazetidin-3-yl)piperazine-1-carboxamide hydrochloride] yielded an IC50 of no more than 20 nM.
In turn, `CCc1nc2ccc(-c3cnc(N4CCC(NC(=O)C5CNC5)CC4)nc3)cn2c1N(C)c1nc(-c2ccc(F)cc2)c(C#N)s1` [Compound 83 hydrochloride, N-(1-(5-(3-((5-cyano-4-(4-fluorophenyl)thiazol-2-yl)(methyl)amino)-2-ethylimidazo[1,2-a]pyridin-6-yl)pyrimidin-2-yl)piperidin-4-yl)azetidine-3-carboxamide hydrochloride] gave an IC50 of no more than 20 nM.
`CCc1nc2ccc(-c3cnc(N4CCC(NC(=O)C5CCNCC5)CC4)nc3)cn2c1N(C)c1nc(-c2ccc(F)cc2)c(C#N)s1` [Compound 84, N-(1-(5-(3-((5-cyano-4-(4-fluorophenyl)thiazol-2-yl)(methyl)amino)-2-ethylimidazo[1,2-a]pyridin-6-yl)pyrimidin-2-yl)piperidin-4-yl)piperidine-4-carboxamide] returned an IC50 of no more than 20 nM.
The molecule `CCc1nc2ccc(-c3ccc(N4CCN(C(=O)C5CN(C)C5)CC4)nc3)cn2c1N(C)c1nc(-c2ccc(F)cc2)c(C#N)s1` [Compound 86, 2-((2-ethyl-6-(6-(4-(1-methylazetidine-3-carbonyl)piperazin-1-yl)pyridin-3-yl)imidazo[1,2-a]pyridin-3-yl)(methyl)amino)-4-(4-fluorophenyl)thiazole-5-carbonitrile] yielded a 50% inhibitory concentration (IC50) of 20 to 200 nM.
`CCc1nc2ccc(-c3ccc(N4CCC(NC5(CO)CC5)CC4)nc3)cn2c1N(C)c1nc(-c2ccc(F)cc2)c(C#N)s1` [Compound 88, 2-((2-ethyl-6-(6-(4-((1-(hydroxymethyl)cyclopropyl)amino)piperidin-1-yl)pyridin-3-yl)imidazo[1,2-a]pyridin-3-yl)(methyl)amino)-4-(4-fluorophenyl)thiazole-5-carbonitrile] returned an IC50 of no more than 20 nM.
`CCc1nc2ccc(-c3ccc(N4CCC(NC5CNC5)CC4)nc3)cn2c1N(C)c1nc(-c2ccc(F)cc2)c(C#N)s1` [Compound 89 hydrochloride, 2-((6-(6-(4-(azetidin-3-ylamino)piperidin-1-yl)pyridin-3-yl)-2-ethylimidazo[1,2-a]pyridin-3-yl)(methyl)amino)-4-(4-fluorophenyl)thiazole-5-carbonitrile hydrochloride] had a 50% inhibitory concentration (IC50) of no more than 20 nM.
Turning to `CCc1nc2ccc(-c3ccc(N4CCC(NC5CCNCC5)CC4)nc3)cn2c1N(C)c1nc(-c2ccc(F)cc2)c(C#N)s1` [Compound 90, 2-((2-ethyl-6-(6-(4-(piperidin-4-ylamino)piperidin-1-yl)pyridin-3-yl)imidazo[1,2-a]pyridin-3-yl)(methyl)amino)-4-(4-fluorophenyl)thiazole-5-carbonitrile], the half-maximal inhibitory concentration (IC50) was no more than 20 nM.
Turning to `CCc1nc2ccc(-c3ccc(N4CCN(CC(=O)N5CC[C@H](O)C5)CC4)nc3)cn2c1N(C)c1nc(-c2ccc(F)cc2)c(C#N)s1` [Compound 91, (S)-2-((2-ethyl-6-(6-(4-(2-(3-hydroxypyrrolidin-1-yl)-2-oxoethyl)piperazin-1-yl)pyridin-3-yl)imidazo[1,2-a]pyridin-3-yl)(methyl)amino)-4-(4-fluorophenyl) thiazole-5-carbonitrile], the IC50 was no more than 20 nM.
As for `CCc1nc2ccc(-c3ccc(N4CCN(C(=O)NC5CCNCC5)CC4)nc3)cn2c1N(C)c1nc(-c2ccc(F)cc2)c(C#N)s1` [Compound 94, 4-(5-(3-((5-cyano-4-(4-fluorophenyl)thiazol-2-yl)(methyl)amino)-2-ethylimidazo[1,2-a]pyridin-6-yl)pyridin-2-yl)-N-(piperidin-4-yl)piperazine-1-carboxamide], the IC50 lay in the range of 20 to 200 nM.
In turn, `CCc1nc2ccc(-c3ccc(N4CCN(C(=O)[C@@H]5C[C@@H](O)CN5)CC4)nc3)cn2c1N(C)c1nc(-c2ccc(F)cc2)c(C#N)s1` [Compound 95, 2-((2-ethyl-6-(6-(4-((2S,4R)-4-hydroxypyrrolidine-2-carbonyl)piperazin-1-yl)pyridin-3-yl)imidazo[1,2-a]pyridin-3-yl)(methyl)amino)-4-(4-fluorophenyl)thiazole-5-carbonitrile] yielded an IC50 of no more than 20 nM.
As for `CCc1nc2ccc(-c3ccc(N4CCN(C(=O)NC5CNC5)CC4)nc3)cn2c1N(C)c1nc(-c2ccc(F)cc2)c(C#N)s1` [Compound 96 hydrochloride, N-(azetidin-3-yl)-4-(5-(3-((5-cyano-4-(4-fluorophenyl)thiazol-2-yl)(methyl)amino)-2-ethylimidazo[1,2-a]pyridin-6-yl)pyridin-2-yl) piperazine-1-carboxamide hydrochloride], the IC50 lay within 20 to 200 nM.
Next, `CCc1nc2ccc(-c3ccc(N4CC(C(=O)NC5(CO)CC5)C4)nc3)cn2c1N(C)c1nc(-c2ccc(F)cc2)c(C#N)s1` [Compound 97, 1-(5-(3-((5-cyano-4-(4-fluorophenyl)thiazol-2-yl)(methyl)amino)-2-ethylimidazo[1,2-a]pyridin-6-yl)pyridin-2-yl)-N-(1-(hydroxymethyl)cyclopropyl)azetidine-3-carboxamide]: 20 to 200 nM; `CCc1nc2ccc(-c3ccc(N4CCC(NC(=O)C5(O)CC5)CC4)nc3)cn2c1N(C)c1nc(-c2ccc(F)cc2)c(C#N)s1` [Compound 98, N-(1-(5-(3-((5-cyano-4-(4-fluorophenyl)thiazol-2-yl)(methyl)amino)-2-ethylimidazo[1,2-a]pyridin-6-yl)pyridin-2-yl)piperidin-4-yl)-1-hydroxycyclopropane-1-carboxamide]: no more than 20 nM.
`CCc1nc2ccc(-c3cnc(C4CCN(C(=O)C5CC5)CC4)nc3)cn2c1N(C)c1nc(-c2ccc(F)cc2)c(C#N)s1` [Compound 99, 2-((6-(2-(1-(cyclopropanecarbonyl)piperidin-4-yl)pyrimidin-5-yl)-2-ethylimidazo[1,2-a]pyridin-3-yl)(methyl)amino)-4-(4-fluorophenyl)thiazole-5-carbonitrile]: the half-maximal inhibitory concentration (IC50) is 20 to 200 nM.
Next, `CCc1nc2ccc(-c3cnc(C4CCN(C(=O)C5CCC5)CC4)nc3)cn2c1N(C)c1nc(-c2ccc(F)cc2)c(C#N)s1` [Compound 100, 2-((6-(2-(1-(cyclobutanecarbonyl)piperidin-4-yl)pyrimidin-5-yl)-2-ethylimidazo[1,2-a]pyridin-3-yl)(methyl)amino)-4-(4-fluorophenyl)thiazole-5-carbonitrile]: 20 to 200 nM; `CCc1nc2ccc(-c3cnc(C4CCN(C(=O)N5CCC5)CC4)nc3)cn2c1N(C)c1nc(-c2ccc(F)cc2)c(C#N)s1` [Compound 101, 2-((6-(2-(1-(azetidine-1-carbonyl)piperidin-4-yl)pyrimidin-5-yl)-2-ethylimidazo[1,2-a]pyridin-3-yl)(methyl)amino)-4-(4-fluorophenyl)thiazole-5-carbonitrile]: 20 to 200 nM.
The molecule `CCc1nc2ccc(-c3cnc(C4CCN(C(=O)N5CCCC5)CC4)nc3)cn2c1N(C)c1nc(-c2ccc(F)cc2)c(C#N)s1` [Compound 102, 2-((2-ethyl-6-(2-(1-(pyrrolidine-1-carbonyl)piperidin-4-yl)pyrimidin-5-yl)imidazo[1,2-a]pyridin-3-yl)(methyl)amino)-4-(4-fluorophenyl)thiazole-5-carbonitrile] had a half-maximal inhibitory concentration (IC50) of 20 to 200 nM.
The molecule `CCc1nc2ccc(-c3cnc(C4CCN(CC(=O)N5CCC5)CC4)nc3)cn2c1N(C)c1nc(-c2ccc(F)cc2)c(C#N)s1` [Compound 103, 2-((6-(2-(1-(2-(azetidin-1-yl)-2-oxoethyl)piperidin-4-yl)pyrimidin-5-yl)-2-ethylimidazo[1,2-a]pyridin-3-yl)(methyl)amino)-4-(4-fluorophenyl)thiazole-5-carbonitrile] registered a half-maximal inhibitory concentration (IC50) of 20 to 200 nM.

By IC50 is commonly meant the concentration that inhibits the measured activity by half. High values mean a need for much substance, low ones inhibition by little substance.

The values are drawn from patent publication US11970493B2, “Autotaxin inhibitor compounds” (ILDONG PHARMACEUTICAL CO., LTD., priority 2020, dated 2024).
